Data taken from patent US5849922A, “Preparation of substituted alkenoic acids” (Eli Lilly and Company, priority 1997, dated 1998).

Test system: TXA2 agonist activity
Test: Absence of Agonist Activity (pressor response in pithed rats)
Type: in vivo
Source text: 3. Absence of Agonist Activity.

SMILES	pressor response following i.v. administration (i.v., doses up to 10 mg/kg)	increase in the mean arterial pressure (0.1 mg/kg i.v., at one minute after dosing)
O=C(O)CCCC/C=C(\c1ccc(-c2nc(C(=O)NCCCCC3CCCCC3)co2)cc1)c1cccnc1 [Example 2, (E)-7-[4-[4-[[(4-Cyclohexylbutyl)amino]carbonyl]-2-oxazolyl]phenyl]-7-(3-pyridyl)hept-6-enoic Acid]	absence of a pressor response	–
O=C(O)CCC/C=C\CC1C2CCC(C2)C1NS(=O)(=O)c1ccccc1 (centres unmarked) [Example S-145]	–	transient, but significant, increase in the mean arterial pressure
